The values that follow come from ChEMBL document CHEMBL5614417, “Discovery of AMPs from random peptides via deep learning-based model and biological activity validation” (Eur J Med Chem, 2024).

SMILES strings stand for the structures. Values after ≈ are worked out from the molar mass of the structure shown. Active and inactive are the calls of the source. The calls are words filed in the database; no cut-off is given here. Where a SMILES comes first, the peptide text is derived from it.

The subject of data set [1] is Staphylococcus aureus. Briefly: Antibacterial activity against Staphylococcus aureus ATCC 25923 incubated for 18 hrs by visual inspection method. It counts as functional.
Data set [2] relates to Escherichia coli. The data set can be described thus: Antibacterial activity against Escherichia coli ATCC 25922 incubated for 18 hrs by visual inspection method. It counts as functional.
For data set [3], the system named is Staphylococcus aureus. The data set can be described thus: Antibacterial activity against methicillin resistant Staphylococcus aureus 4 incubated for 18 hrs by visual inspection method. It counts as functional.
The test system of data set [4] is Escherichia coli. Briefly: Antibacterial activity against ESBL Escherichia coli 3 incubated for 18 hrs by visual inspection method. It counts as functional.
Data set [5] has as its system Acinetobacter baumannii. Briefly: Antibacterial activity against multidrug resistant Acinetobacter baumannii 2 incubated for 18 hrs by visual inspection method. The class given is functional.
Data set [6] concerns Cell membrane. Briefly: Disruption of outer membrane integrity in Escherichia coli assessed as increase in fluorescence intensity by measuring NPN uptake at 1 to 4 times MIC by fluorescence based analysis. It counts as cell membranes. The following applies: TDE = time-dependent effect.
Data set [7] has as its system Cell membrane. Briefly: Disruption of outer membrane integrity in Escherichia coli assessed as increase in fluorescence intensity by measuring NPN uptake measured every min for 15 mins by fluorescence based analysis. The class given is cell membranes.
The subject of data set [8] is Cell membrane. The data set can be described thus: Induction of cell membrane damage in Staphylococcus aureus at 4 times MIC incubated for 30 mins by PI staining based confocal laser scanning microscopic analysis. The class given is cell membranes.
For data set [9], the system named is Cell membrane. The data set can be described thus: Induction of cell membrane damage in Escherichia coli assessed as change in morphology by measuring numerous blebs covered membrane at 4 times MIC incubated for 5 hrs by SEM analysis. It counts as cell membranes.
For data set [10], the system named is Staphylococcus aureus. Briefly: Bactericidal activity against Staphylococcus aureus at 4 times MIC measured after 2 hrs by time kill kinetic assay. The class given is functional.
In data set [11] the test system is Staphylococcus aureus. The data set can be described thus: Antibacterial activity against Staphylococcus aureus infected in BALB/c mouse at 10 to 20 mg/kg administered every 4 hrs for 3 doses and measured after 4 hrs post last dose. It counts as functional, organism-based. Particulars: dose 10-20 mg/kg, time 16.0 hrs.
The nature of data set [12]: Toxicity in BALB/c mouse assessed as edema in hepatocytes at 200 to 400 mg/kg, ip measured after 48 hrs by H and E staining based assay. The class given is organism-based. Particulars: in vivo, dose 200-400 mg/kg.

In the case of `CC[C@H](C)[C@H](NC(=O)[C@H](Cc1ccccc1)NC(=O)[C@@H](N)Cc1c[nH]c2ccccc12)C(=O)N[C@H](C(=O)N[C@@H](Cc1c[nH]c2ccccc12)C(=O)N[C@@H](Cc1c[nH]cn1)C(=O)N[C@@H](Cc1c[nH]c2ccccc12)C(=O)N[C@@H](CCCNC(=N)N)C(=O)N[C@@H](CCCCN)C(=O)N[C@H](C(=O)N1CCC[C@H]1C(=O)N1CCC[C@H]1C(=O)N[C@@H](CCCCN)C(N)=O)[C@@H](C)CC)[C@@H](C)CC` (H-WFIIWHWRKIPPK-NH2), the MIC amounted to 7.5 µg/mL (≈ 4.15 µM) in [1]; 15 µg/mL (≈ 8.3 µM) in [2]; 7.5 µg/mL (≈ 4.15 µM) in data set [3]; 15 µg/mL (≈ 8.3 µM) in data set [4]; 7.5 µg/mL (≈ 4.15 µM) in [5]. Moreover, the Activity result in [6] was “Tde”; in data set [7], “Dose-Dependent Effect”; in data set [10] it was 100%; in data set [12] it was “Toxic”. The outcome in data set [8], in data set [9] and in data set [11] was Active.
